Test results reported in patent publication US20150284393A1, “METHODS FOR TREATING EYE DISORDERS” (PRISM PHARMA CO., LTD, priority 2012, published 2015).

How the values were obtained:
[1] = system: rat model of laser-induced choroidal neovascularization; experiment: rat model of laser-induced choroidal neovascularization (CNV); assay type: in vivo, Brown Norway rats; details: for average CNV lesion size vs vehicle controls: bilateral intravitreal on Days 3 and 10; for anti-angiogenic or vascular disruption activity: rat model of CNV, intravitreal
Source text: The objective of this study was to assess the anti-angiogenic/vascular disrupting effects of Compound A, an alpha helix mimetic β-catenin inhibitor compound, and Compound C, the active metabolite of Compound A, in a rat model of laser-induced choroidal neovascularization. Compound A is 4-(((6S,9S,9aS)-1-(benzylcarbamoyl)-2,9-dimethyl-4,7-dioxo-8-(quinolin-8-ylmethyl)octahydro-1H-pyrazino[2,1-c][1,2,4]triazin-6-yl)methyl)phenyl dihydrogen phosphate. Compound C is (6S,9S,9aS)-N-benzyl-6-(4-hydroxybenzyl)-2,9-dimethyl-4,7-dioxo-8-(quinolin-8-ylmethyl)octahydro-1H-pyrazino[2,1-c][1,2,4]triazine-1-carboxamide.
For compound A, an 80 mg/ml solution of 4-(((6S,9S,9aS)-1-(benzylcarbamoyl)-2,9-dimethyl-4,7-dioxo-8-(quinolin-8-ylmethyl)octahydro-1H-pyrazino[2,1-c][1,2,4]triazin-6-yl)methyl)phenyl dihydrogen phosphate was prepared in sterile PBS. This solution was further diluted 1:4 to make a 20 mg/ml solution. The 20 mg/ml solution was diluted 1:4 to make a 5 mg/ml solution.
For compound C, a solution containing 0.5% NaCMC and 0.5% Polysorbate 80 (Tween 80) was prepared in USP grade water. 20 mg of (6S,9S,9aS)-N-benzyl-6-(4-hydroxybenzyl)-2,9-dimethyl-4,7-dioxo-8-(quinolin-8-ylmethyl)octahydro-1H-pyrazino[2,1-c][1,2,4]triazine-1-carboxamide was dissolved in 1 ml (using displacement pipette) of USP grade PEG400 in a glass vial. Slight heating and sonication/vortexing were performed if necessary. The glass vial containing the 20 mg/ml compound C solution was placed on a magnetic stir plate and an equal volume (1 ml) of the CMC/Tween 80 solution was added to the compound C/PEG400 solution (slowly in drop-wise fashion during continuous mixing with a stir bar). The resultant formulation was a clear solution containing 10 mg/ml compound C, 50% PEG400, 0.25% NaCMC, and 0.25% Tween 80.
Laser application to produce CNV lesions. Animals were dilated with 1% Cyclogyl solution and protected from light. Following observable dilation, the animals were sedated with ketamine/xylazine. The fundus of sedated animals was observed and recorded using a Micron III small animal funduscope (Phoenix Research). Laser treatments were performed using a thermal laser which is connected through the Micron III custom laser attachment. A total of 3 lesions per eye were placed using a wavelength of 520 nm.
Fundus images were recorded to confirm that the laser had successfully produced a bubble through the Bruch's membrane. It was expected that 5-10% of all laser spots would not develop any quantifiable CNV.
Intravitreal injections. Animals were anesthetized with ketamine/xylazine and the test compound was then injected in a volume of 5 μl into the vitreous through the pars plana using a Hamilton syringe and a 32 gauge needle. Following injection, the animals received an equal amount of topical antibiotic ointment on both eyes. Any eyes displaying signs of hemorrhage following laser application or intravitreal injection were excluded from analysis.
Fluorescein angiography. Animals were anesthetized with ketamine/xylazine and then received an IP injection of 10% Fluorescein Sodium at 1 μl/gram of body weight. Fundus images were then captured as 8-bitt TIFF files using the Micron III and exciter/barrier filters for a target wavelength of 488 nm. Standard color fundus photos were also captured for each eye.
Imaging and lesion quantification. All TIFF images were quantified using computerized image-analysis software (ImageJ, NIH, USA). Lesions were then individually traced free-hand in order to quantify the area in pixels and the color fundus photos were used as a reference for lesion location. Areas of avascularization in the center of lesions were excluded from area calculations. In the case of a hemorrhage or two lesions overlapping these lesions were excluded from analysis.
Statistical Analyses. Statistical Analyses were performed with Graphpad Prism software (version 5) using one-way analysis of variance (ANOVA) with a Tukey's post-hoc test for significance.
Animals. […]

[2] = system: rat model of proliferative vitreoretinopathy (PVR) following retinal detachment; experiment: rat model of proliferative vitreoretinopathy (PVR) following retinal detachment; assay type: in vivo, Long Evans rats
Source text: The objective of this study was to assess the anti-fibrotic efficacy of Compound A, an alpha helix mimetic β-catenin inhibitor compound, in a rat model of proliferative vitreoretinopathy (PVR) following retinal detachment. Compound A is 4-(((6S,9S,9aS)-1-(benzylcarbamoyl)-2,9-dimethyl-4,7-dioxo-8-(quinolin-8-ylmethyl)octahydro-1H-pyrazino[2,1-c][1,2,4]triazin-6-yl)methyl)phenyl dihydrogen phosphate.
The well defined normal consequences of retinal detachment in this animal model are the hyperproliferation of retinal glial cells (primarily Muller cells), the recruitment of immune cells, and the formation of glial scars. An effective treatment would result in less glial scarring.
Retinal detachments were created by infusing a dilute solution (0.25%) of Healon into the subretinal space of the right eyes in 16 Long Evans rats. Twenty (20) mg/ml of Compound A in 5 microliters were injected intravitreally immediately after the detachment surgery in 8 animals. The other 8 animals received an intravitreal injection of the vehicle as a control. The left eyes served as naive controls. Seven days after detachment, settling of the retina occurs causing folds to form in the retina. All animals were euthanized using CO2, 7 days after retinal detachment.
Following euthanasia, the retinas were fixed in 4% paraformaldehyde for 24 hours. Three retinal regions approximately 3 mm square were sampled from within each detached retina as well as from control retinas. The retinas were embedded in agarose and vibratomed at 100 microns in thickness. Sections were immunolabeled with antibodies to intermediate filament proteins (vimentin) and proliferating cells (phosphohistone H3). A marker for immune cells (isolectin B4) and a nuclear stain (Hoescht) was also used. All 4 probes were added to the same sections (i.e. quadruple labeling).
The sections were imaged using an Olympus FV1000 confocal microscope. Digital images were aquired and used to determine 1) the number and size of subretinal glial scars 2) the number of dividing cells and their cell type e.g. of immune or glial origin 3) whether microglia were “activated” and 4) if macrophages were present.
The data were analyzed using a two-tailed T-test. Mean differences with a P values less than 0.05 were considered significant.
Scar frequency was calculated by dividing the total number of scars noted in each retina by the total area examined. The average scar size/length was calculated by dividing the total scar length in a given retina by the total number of scars counted in that retina.
Immunohistochemistry. Qualitative assessment of animals (4 saline and 4 Compound A treated) were evaluated for glial scarring, cell proliferation, and immune cell infiltrates. Three retinal regions from rats 5-8 (PVR+saline) and 13-16 (PVR+Compound A) were excised from the eye, sectioned, and labeled with antibodies (˜25 sections from each eye were surveyed).

SMILES | average CNV lesion size vs vehicle controls ([1]; Day 15, 400 μg, p<0.01, FIG. 4A) | average CNV lesion size vs vehicle controls ([1]; Day 22, 100 μg, p<0.01, FIG. 4B) | anti-angiogenic or vascular disruption activity [1] | CNV lesion size, dose effect ([1]; two higher tested doses (100 μg or 400 μg), 25 μg not significant) | dividing immune cells (immune cell response) following retinal detachment ([2]; 20 mg/ml in 5 microliters intravitreally immediately after detachment, 7 days after detachment, vs vehicle, FIG. 1A) | number of Muller cells/mm ([2]; 20 mg/ml in 5 microliters intravitreally, 7 days after detachment, two-tailed T-test, P<0.05 significant, FIG. 1C) | increase in number of proliferating glial cells following retinal detachment ([2]; 20 mg/ml in 5 microliters intravitreally, 7 days after detachment, vs vehicle, FIG. 1B) | increase in number of proliferating Muller cells following retinal detachment ([2]; 20 mg/ml in 5 microliters intravitreally, 7 days after detachment, vs vehicle, FIG. 1C) | increase in number of proliferating astrocytes following retinal detachment ([2]; 20 mg/ml in 5 microliters intravitreally, 7 days after detachment, vs vehicle, FIG. 1D) | frequency of glial scar formation (total number of scars / total area examined) ([2]; 20 mg/ml in 5 microliters intravitreally, 7 days after detachment, vs vehicle, FIG. 2A) | average scar size/length (total scar length / number of scars) ([2]; 20 mg/ml in 5 microliters intravitreally, 7 days after detachment, vs vehicle, FIG. 2B) | subretinal gliosis (glial scarring), vimentin labeled Muller cell processes extending into the subretinal space, immunohistochemistry ([2]; qualitative assessment, 4 treated animals (rats 13-16) vs 4 saline, FIGS. 3C-3D) | size of the lesions ([1]; 50 μg intravitreal) | average CNV lesion size vs vehicle controls ([1]; Day 15, 50 μg, p<0.05, FIG. 4A)
C[C@H]1[C@H]2N(C(=O)CN(C)N2C(=O)NCc2ccccc2)[C@@H](Cc2ccc(OP(=O)(O)O)cc2)C(=O)N1Cc1cccc2cccnc12 [Compound A, 4-(((6S,9S,9aS)-1-(benzylcarbamoyl)-2,9-dimethyl-4,7-dioxo-8-(quinolin-8-ylmethyl)octahydro-1H-pyrazino[2,1-c][1,2,4]triazin-6-yl)methyl)phenyl dihydrogen phosphate] | statistically significant | demonstrated significance | demonstrated efficacy | demonstrated statistical significance | did not have any effect | significantly affected | largely attenuated | largely attenuated | largely attenuated | significantly reduced | significant reduction | no glial scarring was noted |  | 
C[C@H]1[C@H]2N(C(=O)CN(C)N2C(=O)NCc2ccccc2)[C@@H](Cc2ccc(O)cc2)C(=O)N1Cc1cccc2cccnc12 [Compound C, (6S,9S,9aS)-N-benzyl-6-(4-hydroxybenzyl)-2,9-dimethyl-4,7-dioxo-8-(quinolin-8-ylmethyl)octahydro-1H-pyrazino[2,1-c][1,2,4]triazine-1-carboxamide] |  |  | demonstrated efficacy |  |  |  |  |  |  |  |  |  | significant impact | statistically significant
